This passage reports remaining activity results from patent US20240246942A1, “KINASE INHIBITORS FOR THE TREATMENT OF NEURODEGENERATIVE DISEASES” (priority 2020, published 2024).

Assay in all cases: biochemical
Assay [1] concerns the target T1, panel of 374 wild-type kinases (Homo sapiens, UniProt P04629).
T1 construct: purchased Reaction Biology Corporation
The conditions noted are these: read-out: % Enzyme Activity (relative to DMSO controls), kinase TRKA.

Assay [2] deals with T2, panel of 374 wild-type kinases (Homo sapiens, UniProt P36897).
T2 construct: purchased Reaction Biology Corporation
T2 sequence (P36897 34-503): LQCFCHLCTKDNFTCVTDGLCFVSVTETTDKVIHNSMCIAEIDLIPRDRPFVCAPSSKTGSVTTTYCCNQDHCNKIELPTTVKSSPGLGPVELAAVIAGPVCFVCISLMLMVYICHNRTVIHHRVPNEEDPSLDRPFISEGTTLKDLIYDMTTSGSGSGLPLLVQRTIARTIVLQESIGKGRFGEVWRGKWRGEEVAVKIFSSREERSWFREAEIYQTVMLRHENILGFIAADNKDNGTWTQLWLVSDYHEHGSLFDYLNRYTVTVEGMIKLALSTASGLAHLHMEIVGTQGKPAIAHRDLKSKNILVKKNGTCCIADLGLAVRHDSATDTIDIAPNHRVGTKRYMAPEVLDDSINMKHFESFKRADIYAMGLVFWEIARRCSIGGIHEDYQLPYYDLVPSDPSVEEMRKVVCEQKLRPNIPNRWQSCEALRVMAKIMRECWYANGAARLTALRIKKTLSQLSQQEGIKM
The following applies: read-out: % Enzyme Activity (relative to DMSO controls), ALK5/TGFBR1.

The target of assay [3] is T3, panel of 374 wild-type kinases (Homo sapiens, UniProt P42685).
T3 construct: purchased Reaction Biology Corporation
T3 sequence (P42685 whole entry): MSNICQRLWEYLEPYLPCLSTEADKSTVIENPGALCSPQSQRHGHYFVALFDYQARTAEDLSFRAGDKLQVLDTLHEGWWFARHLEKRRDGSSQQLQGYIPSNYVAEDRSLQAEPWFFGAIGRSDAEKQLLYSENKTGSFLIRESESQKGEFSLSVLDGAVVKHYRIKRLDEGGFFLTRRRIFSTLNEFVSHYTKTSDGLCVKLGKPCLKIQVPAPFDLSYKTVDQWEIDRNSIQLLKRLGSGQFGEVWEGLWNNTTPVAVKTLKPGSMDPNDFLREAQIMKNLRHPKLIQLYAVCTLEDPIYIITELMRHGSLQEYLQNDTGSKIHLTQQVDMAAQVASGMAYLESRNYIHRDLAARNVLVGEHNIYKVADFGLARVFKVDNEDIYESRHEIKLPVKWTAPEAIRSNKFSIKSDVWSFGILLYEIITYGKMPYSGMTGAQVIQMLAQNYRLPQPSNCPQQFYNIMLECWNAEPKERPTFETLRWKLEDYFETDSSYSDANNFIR
The following applies: read-out: % Enzyme Activity (relative to DMSO controls), FRK/PTK5.

The target of assay [4] is T4, panel of 374 wild-type kinases (Homo sapiens, UniProt P51813).
T4 construct: purchased Reaction Biology Corporation
T4 sequence (P51813 1-675): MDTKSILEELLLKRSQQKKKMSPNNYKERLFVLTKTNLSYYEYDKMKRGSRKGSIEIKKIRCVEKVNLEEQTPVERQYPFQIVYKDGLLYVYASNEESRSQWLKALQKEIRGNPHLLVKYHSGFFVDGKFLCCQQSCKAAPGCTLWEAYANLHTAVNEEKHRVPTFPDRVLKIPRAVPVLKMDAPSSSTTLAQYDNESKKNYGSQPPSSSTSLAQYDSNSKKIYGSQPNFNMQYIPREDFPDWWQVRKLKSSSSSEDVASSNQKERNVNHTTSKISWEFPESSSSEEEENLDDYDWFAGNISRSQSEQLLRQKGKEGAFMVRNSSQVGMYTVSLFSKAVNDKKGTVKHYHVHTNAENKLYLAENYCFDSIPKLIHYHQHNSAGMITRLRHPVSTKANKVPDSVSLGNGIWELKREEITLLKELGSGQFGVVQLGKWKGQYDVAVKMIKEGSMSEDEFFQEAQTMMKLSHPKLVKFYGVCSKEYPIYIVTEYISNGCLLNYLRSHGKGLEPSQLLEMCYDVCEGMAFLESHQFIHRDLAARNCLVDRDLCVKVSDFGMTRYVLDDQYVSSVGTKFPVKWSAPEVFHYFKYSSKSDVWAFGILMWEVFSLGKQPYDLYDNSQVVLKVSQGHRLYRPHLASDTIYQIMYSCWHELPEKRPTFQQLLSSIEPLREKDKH
The conditions noted are these: read-out: % Enzyme Activity (relative to DMSO controls), BMX/ETK.

Assay [5] addresses T5, panel of 374 wild-type kinases (Homo sapiens, UniProt Q08881).
T5 construct: purchased Reaction Biology Corporation
T5 sequence (Q08881 1-620): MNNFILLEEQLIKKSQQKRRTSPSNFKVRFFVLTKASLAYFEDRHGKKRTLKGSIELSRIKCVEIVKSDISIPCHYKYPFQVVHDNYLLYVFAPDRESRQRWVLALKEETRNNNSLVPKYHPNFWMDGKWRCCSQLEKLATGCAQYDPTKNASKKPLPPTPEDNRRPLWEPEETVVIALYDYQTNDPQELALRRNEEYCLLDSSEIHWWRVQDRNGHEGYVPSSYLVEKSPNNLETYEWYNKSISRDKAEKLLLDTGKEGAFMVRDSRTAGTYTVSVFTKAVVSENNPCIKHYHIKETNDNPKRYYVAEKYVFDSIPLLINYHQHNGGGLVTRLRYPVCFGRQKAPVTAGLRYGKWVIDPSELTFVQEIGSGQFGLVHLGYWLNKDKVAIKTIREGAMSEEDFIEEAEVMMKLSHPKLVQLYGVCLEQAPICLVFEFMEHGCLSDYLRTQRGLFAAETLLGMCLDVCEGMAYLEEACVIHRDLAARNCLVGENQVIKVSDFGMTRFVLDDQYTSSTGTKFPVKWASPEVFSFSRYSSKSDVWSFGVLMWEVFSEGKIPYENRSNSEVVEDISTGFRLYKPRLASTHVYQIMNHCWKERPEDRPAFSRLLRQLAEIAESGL
The following applies: read-out: % Enzyme Activity (relative to DMSO controls), ITK.

Assay [6] concerns the target T6, panel of 374 wild-type kinases (Homo sapiens, UniProt Q9UKI8).
T6 construct: purchased Reaction Biology Corporation
T6 sequence (Q9UKI8 1-766): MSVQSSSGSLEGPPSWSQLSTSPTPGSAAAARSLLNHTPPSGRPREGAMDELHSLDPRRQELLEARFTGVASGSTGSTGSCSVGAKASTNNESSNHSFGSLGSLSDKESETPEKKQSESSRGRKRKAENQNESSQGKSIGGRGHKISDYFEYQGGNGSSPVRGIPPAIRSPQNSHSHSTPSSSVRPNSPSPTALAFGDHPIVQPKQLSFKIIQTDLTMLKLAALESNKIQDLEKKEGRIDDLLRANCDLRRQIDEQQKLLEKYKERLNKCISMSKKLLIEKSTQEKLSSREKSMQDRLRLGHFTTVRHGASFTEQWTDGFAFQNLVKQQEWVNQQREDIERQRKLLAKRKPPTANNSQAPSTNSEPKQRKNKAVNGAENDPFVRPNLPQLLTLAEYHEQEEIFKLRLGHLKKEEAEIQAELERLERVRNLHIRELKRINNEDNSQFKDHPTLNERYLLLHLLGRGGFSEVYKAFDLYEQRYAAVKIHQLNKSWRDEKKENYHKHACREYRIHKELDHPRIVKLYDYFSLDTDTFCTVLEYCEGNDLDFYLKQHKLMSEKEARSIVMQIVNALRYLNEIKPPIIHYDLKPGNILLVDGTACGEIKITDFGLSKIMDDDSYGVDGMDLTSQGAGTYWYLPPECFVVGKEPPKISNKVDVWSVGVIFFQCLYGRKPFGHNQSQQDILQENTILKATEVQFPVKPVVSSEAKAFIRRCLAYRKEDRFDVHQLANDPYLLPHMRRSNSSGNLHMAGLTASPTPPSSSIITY
The following applies: read-out: % Enzyme Activity (relative to DMSO controls), kinase TLK1.

Molecules are shown by their SMILES.

T1 sequence (P04629 33-796): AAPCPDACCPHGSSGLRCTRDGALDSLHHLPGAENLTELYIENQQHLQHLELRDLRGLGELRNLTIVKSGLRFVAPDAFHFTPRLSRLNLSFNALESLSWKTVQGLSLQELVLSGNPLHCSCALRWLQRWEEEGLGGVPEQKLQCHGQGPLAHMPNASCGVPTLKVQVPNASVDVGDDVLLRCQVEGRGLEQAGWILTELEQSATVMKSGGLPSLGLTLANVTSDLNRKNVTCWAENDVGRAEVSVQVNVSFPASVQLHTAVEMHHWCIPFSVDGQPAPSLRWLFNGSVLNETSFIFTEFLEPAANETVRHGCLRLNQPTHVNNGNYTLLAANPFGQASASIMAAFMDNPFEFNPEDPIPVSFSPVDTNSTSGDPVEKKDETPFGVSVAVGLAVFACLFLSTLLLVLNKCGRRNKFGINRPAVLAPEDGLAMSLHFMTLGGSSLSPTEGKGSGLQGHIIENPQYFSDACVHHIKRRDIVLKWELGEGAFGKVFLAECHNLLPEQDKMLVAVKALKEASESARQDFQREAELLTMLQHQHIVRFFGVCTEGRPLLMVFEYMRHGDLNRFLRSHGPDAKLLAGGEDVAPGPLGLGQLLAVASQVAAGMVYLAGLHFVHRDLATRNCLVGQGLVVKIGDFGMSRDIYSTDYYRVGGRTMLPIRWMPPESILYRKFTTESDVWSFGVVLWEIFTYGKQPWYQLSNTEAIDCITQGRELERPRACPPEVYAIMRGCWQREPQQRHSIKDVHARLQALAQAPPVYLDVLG

Take `O=C(Nc1cnn(-c2csc(C(=O)NC3COC3)c2)c1)Nc1ccccc1Cl` [Compound 17, 4-(4-(3-(2-chlorophenyl)ureido)-1H-pyrazol-1-yl)-N-(oxetan-3-yl)thiophene-2-carboxamide]: the remaining activity at 5 µM in assay [1] came to 100%; in assay [2] it was 103%; in assay [3], 97.4%; in assay [4], 106%; in assay [5], 107%; in assay [6] it was 105%.

As to `O=C(Nc1cnn(-c2csc(C(=O)NC3COC3)c2)c1)Nc1c(F)cccc1Cl` [Compound 25, 4-(4-(3-(2-chloro-6-fluorophenyl)ureido)-1H-pyrazol-1-yl)-N-(oxetan-3-yl)thiophene-2-carboxamide], the remaining activity at 5 µM in assay [1] came out at 87.8%; in assay [2] it was 97.4%; in assay [3], 95.6%; in assay [4], 96.8%; in assay [5], 92.8%; in assay [6], 53.4%.

Regarding `Cc1sc(C(=O)NC2COC2)cc1-n1cc(NC(=O)Nc2c(F)cccc2Cl)cn1` [Compound 27, 4-(4-(3-(2-chloro-6-fluorophenyl)ureido)-1H-pyrazol-1-yl)-5-methyl-N-(oxetan-3-yl)thiophene-2-carboxamide], the remaining activity at 10 µM in assay [1] (10 uM) was 81%; in assay [2] (10 uM), 104%; in assay [3] (10 uM), 87.3%; in assay [4] (10 uM), 92.9%; in assay [5] (10 uM), 94.4%; in assay [6] (10 uM), 105%.
